Molecules are shown by their SMILES. Calls of active or inactive are those of the source.

By IC50 is commonly meant the concentration that gives 50% inhibition.

What all share (assay type): functional
The target in assay [1] is T1, Apoptotic protease-activating factor 1 (Homo sapiens, UniProt O14727).
T1 sequence (O14727 whole entry): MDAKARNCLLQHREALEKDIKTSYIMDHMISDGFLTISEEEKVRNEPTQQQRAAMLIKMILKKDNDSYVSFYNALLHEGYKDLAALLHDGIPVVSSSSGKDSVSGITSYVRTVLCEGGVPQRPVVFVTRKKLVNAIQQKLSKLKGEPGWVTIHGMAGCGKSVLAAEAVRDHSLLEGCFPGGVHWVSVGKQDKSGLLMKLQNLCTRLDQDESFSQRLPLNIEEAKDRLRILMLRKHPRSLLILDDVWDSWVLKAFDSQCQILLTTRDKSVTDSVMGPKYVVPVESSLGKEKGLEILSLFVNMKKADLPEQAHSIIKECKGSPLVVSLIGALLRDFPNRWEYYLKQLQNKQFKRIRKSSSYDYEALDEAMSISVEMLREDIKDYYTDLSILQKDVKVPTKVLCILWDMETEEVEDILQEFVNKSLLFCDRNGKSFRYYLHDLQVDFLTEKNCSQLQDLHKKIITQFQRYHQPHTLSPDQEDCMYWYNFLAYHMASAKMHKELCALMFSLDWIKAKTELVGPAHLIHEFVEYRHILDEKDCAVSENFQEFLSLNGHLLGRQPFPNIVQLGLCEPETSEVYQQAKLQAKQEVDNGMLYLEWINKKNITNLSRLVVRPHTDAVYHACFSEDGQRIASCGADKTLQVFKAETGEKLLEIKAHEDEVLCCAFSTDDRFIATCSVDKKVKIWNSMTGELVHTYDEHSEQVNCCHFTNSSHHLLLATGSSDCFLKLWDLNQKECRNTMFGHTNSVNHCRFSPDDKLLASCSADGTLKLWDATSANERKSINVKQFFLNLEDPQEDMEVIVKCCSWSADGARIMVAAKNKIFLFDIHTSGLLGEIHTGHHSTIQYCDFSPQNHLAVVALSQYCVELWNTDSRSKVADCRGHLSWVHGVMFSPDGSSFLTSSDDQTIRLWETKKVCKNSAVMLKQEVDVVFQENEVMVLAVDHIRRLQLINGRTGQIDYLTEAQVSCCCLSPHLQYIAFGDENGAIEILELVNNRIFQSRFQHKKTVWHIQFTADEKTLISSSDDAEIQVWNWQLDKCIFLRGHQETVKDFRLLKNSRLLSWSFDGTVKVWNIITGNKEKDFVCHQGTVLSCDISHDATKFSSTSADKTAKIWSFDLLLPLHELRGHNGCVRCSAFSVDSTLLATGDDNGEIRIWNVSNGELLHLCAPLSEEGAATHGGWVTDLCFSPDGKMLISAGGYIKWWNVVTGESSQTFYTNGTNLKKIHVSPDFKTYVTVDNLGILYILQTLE
Kind of assay: SAR analysis of small molecule Activators of Apaf-1 in a Fluorescent assay - set 2. The settings on record: read-out: EC50_Mean.

Assay [2] is described as follows: SAR analysis of small molecule activators of Apaf-1 using a LZ-Caspase-9/Caspase-3 Fluorescent Selectivity assay - Set 2. Conditions: read-out: EC50_Mean.
Assay [3] concerns the target T2, High affinity choline transporter 1 (Homo sapiens, UniProt Q9GZV3).
T2 sequence (Q9GZV3 whole entry): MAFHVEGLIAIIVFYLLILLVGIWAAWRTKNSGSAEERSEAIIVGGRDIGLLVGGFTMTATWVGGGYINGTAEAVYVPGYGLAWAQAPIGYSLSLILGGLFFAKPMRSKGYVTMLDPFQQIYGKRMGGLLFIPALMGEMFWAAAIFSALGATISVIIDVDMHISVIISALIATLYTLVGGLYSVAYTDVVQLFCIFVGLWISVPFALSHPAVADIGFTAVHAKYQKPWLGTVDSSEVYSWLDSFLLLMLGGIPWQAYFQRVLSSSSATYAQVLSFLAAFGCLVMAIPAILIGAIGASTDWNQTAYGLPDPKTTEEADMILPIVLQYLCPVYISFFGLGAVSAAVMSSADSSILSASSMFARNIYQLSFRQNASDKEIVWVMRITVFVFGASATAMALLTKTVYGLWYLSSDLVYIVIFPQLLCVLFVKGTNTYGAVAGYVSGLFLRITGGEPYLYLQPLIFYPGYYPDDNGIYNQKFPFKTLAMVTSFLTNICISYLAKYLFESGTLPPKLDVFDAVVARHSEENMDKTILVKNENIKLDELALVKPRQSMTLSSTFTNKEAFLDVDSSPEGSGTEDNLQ
Kind of assay: CHT inhibitors, dose response, cell-based, 10-point CRC, membrane potential dye (AID 588401).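 Note: membrane potential dye fluorescence of choline-evoked depolarization via CHT.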

For assay [4], the target named is T2, High affinity choline transporter 1. Kind of assay: CHT inhibitors, dose response, cell-based, 5-point CRC, membrane potential dye (AID 504840).

For `CC(Cn1cnc2ccccc21)C(=O)O` (centres undefined), the values for the EC50 in assay [1] and in assay [2] were 83.2 µM (active) and > 100 µM (inactive), respectively.

For the compound `CCOC(=O)c1cc(C(=O)NC(C)c2ccccc2)c(C)nc1O` (centres undefined), the figures for the IC50 in assay [3] and in assay [4] were 0.447 µM (active) and 1.77 µM (active), respectively.
